Key:
Assay type in all cases: cell-based
[1] = test system: Human breast cancer cell lines T-47D; assay: Caspase cascade activation (Ac-DEVD-R110 fluorogenic substrate) in T-47D cells; settings: T47D cells, 48 h incubation, read-out: caspase potency EC50 T47D
Procedure: (§1) Human breast cancer cell lines T-47D, human hepatocellular carcinoma cell line SNU398, human colon carcinoma cell line HCT116, human cancer cell line H11299, human Burkitt's lymphoma cell line Namalwa, human lymphoma cell line Raji, and human B cell lymphoblastoid cell line Ramos were grown according to media component mixtures designated by American Type Culture Collection+10% FCS (Invitrogen Corporation), in a 5% CO2-95% humidity incubator at 37° C. T-47D and H1299 cells were maintained at a cell density between 50 and 80% confluency at a cell density of 0.1 to 0.6×10^6 cells/mL. Cells were harvested at 600×g and resuspended at 0.65×10^6 cells/mL into appropriate media+10% FCS. An aliquot of 22.5 μL of cells was added to a well of a 384-well microtiter plate containing 2.5 μL of a 10% DMSO in RPMI-1640 media solution containing 0.16 to 100 μM of 6-(3,4-dimethoxyphenyl)-3-(2-methoxyphenyl)-[1,2,4]triazolo[3,4-b][1,3,4]thiadiazole or other test compound (0.016 to 10 μM final). An aliquot of 22.5 μL of cells was added to a well of a 384-well microtiter plate containing 2.5 μL of a 10% DMSO in RPMI-1640 media solution without test compound as the control sample. The samples were mixed by agitation and then incubated at 37° C. for 48 h in a 5% CO2-95% humidity incubator. After incubation, the samples were removed from the incubator and 25 μL of a solution containing 14 μM of N-(Ac-DEVD)-N′-ethoxycarbonyl-R110 (SEQ ID No.:1) fluorogenic substrate (Cytovia, Inc.; WO99/18856), 20% sucrose (Sigma), 20 mM DTT (Sigma), 200 mM NaCl (Sigma), 40 mM Na PIPES buffer pH 7.2 (Sigma), and 500 μg/mL lysolecithin (Calbiochem) was added. The samples were mixed by agitation and incubated at room temperature. Using a fluorescent plate reader (Model SPECTRAfluor Plus, Tecan), an initial reading (T=0) was made approximately 1-2 min after addition of the substrate solution, employing excitation at 485 nm and emission at 530 nm, to determine the background fluorescence of the control sample. After the 3 h incubation, the samples were read for fluorescence as above (T=3 h).
(§2) The Relative Fluorescence Unit values (RFU) were used to calculate the sample readings as follows: RFU(T=3h)−Control RFU(T=0)=Net RFU(T=3h)
(§3) The activity of caspase cascade activation was determined by the ratio of the net RFU value for 6-(3,4-dimethoxyphenyl)-3-(2-methoxyphenyl)-[1,2,4]triazolo[3,4-b][1,3,4]thiadiazole (Example I) or other test compound to that of control samples. The EC50 (nM) was determined by a sigmoidal dose-response calculation (Prism 3.0, GraphPad Software Inc.).

[2] = test system: human hepatocellular carcinoma cell line SNU398; assay: Caspase cascade activation in SNU398 cells; settings: SNU-398, 48 h incubation, read-out: caspase potency EC50 SNU398
Procedure: as §1, §2, §3

[3] = test system: human Burkitt's lymphoma cell line Namalwa; assay: Caspase cascade activation in Namalwa cells; settings: Burkitts lymphoma cell, 48 h incubation, read-out: caspase potency EC50 Namalwa
Procedure: as §1, §2, §3

[4] = test system: human colon carcinoma cell line HCT116; assay: Caspase cascade activation in HCT116 cells; settings: HCT-116, 48 h incubation, read-out: caspase potency EC50 HCT116
Procedure: as §1, §2, §3

[5] = test system: human lymphoma cell line Raji; assay: Caspase cascade activation in Raji cells; settings: RAJ1 cells, 48 h incubation, read-out: caspase potency EC50 RAJ1
Procedure: as §1, §2, §3

[6] = test system: human B cell lymphoblastoid cell line Ramos; assay: Caspase cascade activation in Ramos cells; settings: 48 h incubation, read-out: caspase potency EC50 RAMOS
Procedure: as §1, §2, §3

EC50 [1] [µM]	EC50 [2] [µM]	EC50 [3] [µM]	EC50 [4] [µM]	EC50 [5] [µM]	EC50 [6] [µM]	Compound
> 10	> 10	> 10	> 10	–	–	COc1cc(-c2nnc3sc(-c4ccc(C)c([N+](=O)[O-])c4)nn23)cc(OC)c1OC [Entry 1, 6-(4-Methyl-3-nitrophenyl)-3-(3,4,5-trimethoxyphenyl)-[1,2,4]triazolo[3,4-b][1,3,4]thiadiazole]
–	–	2.66	–	4.94	3.92	CN(C)c1ccc(-c2nn3c(-c4ccncc4)nnc3s2)cc1 [Entry H1, 6-(4-Dimethylaminophenyl)-3-(pyridine-4-yl)-[1,2,4]triazolo[3,4-b][1,3,4]thiadiazole]
–	–	0.963	–	1.56	1.02	COc1ccc(-c2nn3c(-c4ccccc4Cl)nnc3s2)cc1 [Z, 3-(2-Chlorophenyl)-6-(4-methoxyphenyl)-[1,2,4]triazolo[3,4-b][1,3,4]thiadiazole]
> 10	> 10	> 10	> 10	–	–	COc1ccccc1-c1nnc2sc(-c3ccc(OC)c([N+](=O)[O-])c3)nn12 [Entry 6, 6-(4-Methoxy-3-nitrophenyl)-3-(2-methoxyphenyl)-[1,2,4]triazolo[3,4-b][1,3,4]thiadiazole]
> 10	> 10	> 10	> 10	–	–	COc1ccccc1-c1nnc2sc(-c3cccnc3)nn12 [Entry 11, 3-(2-Methoxyphenyl)-6-(pyridin-3-yl)-[1,2,4]triazolo[3,4-b][1,3,4]thiadiazole]
5.04	> 10	> 10	> 10	> 10	> 10	COc1cc(-c2nnc3sc(-c4ccccc4)nn23)cc(OC)c1OC [W, 6-Phenyl-3-(3,4,5-trimethoxyphenyl)-[1,2,4]triazolo[3,4-b][1,3,4]thiadiazole]
> 10	> 10	> 10	> 10	–	–	COc1cc(-c2nnc3sc(-c4ccc5nc[nH]c5c4)nn23)cc(OC)c1OC [Entry 3, 6-(1H-Benzo[d]imidazol-6-yl)-3-(3,4,5-trimethoxyphenyl)-[1,2,4]triazolo[3,4-b][1,3,4]thiadiazole]
–	–	0.598	–	1.06	0.524	CCN(CC)c1ccc(-c2nn3c(-c4ccncc4)nnc3s2)cc1 [J, 6-(4-Diethylaminophenyl)-3-(pyridin-4-yl)-[1,2,4]triazolo[3,4-b][1,3,4]thiadiazole]
2.43	–	1.31	2.76	2.69	1.74	COc1ccc(-c2nn3c(-c4n[nH]c5c4CCC5)nnc3s2)cc1OC [Entry L1, 6-(3,4-Dimethoxyphenyl)-3-(1,4,5,6-tetrahydrocyclopenta[c]pyrazol-3-yl)-[1,2,4]triazolo[3,4-b][1,3,4]thiadiazole]
> 10	> 10	5.63	> 10	5.4	5.3	CCc1nn(C)c(-c2nnc3sc(-c4ccc(OC)cc4)nn23)c1Cl [B, 3-(4-Chloro-3-ethyl-1-methyl-1H-pyrazol-5-yl)-6-(4-methoxyphenyl)-[1,2,4]triazolo[3,4-b][1,3,4]thiadiazole]
> 10	> 10	> 10	> 10	–	–	COc1ccccc1-c1nnc2sc(-c3ccc([N+](=O)[O-])c(OC)c3)nn12 [Entry 10, 6-(3-Methoxy-4-nitrophenyl)-3-(2-methoxyphenyl)-[1,2,4]triazolo[3,4-b][1,3,4]thiadiazole]
3.61	2.01	> 10	2.36	> 10	> 10	COc1cc(-c2nnc3sc(-c4ccncc4)nn23)cc(OC)c1OC [X, 6-(Pyridin-4-yl)-3-(3,4,5-trimethoxyphenyl)-[1,2,4]triazolo[3,4-b][1,3,4]thiadiazole]
–	–	2.35	–	2.93	2.24	CCN(CC)c1ccc(-c2nn3c(-c4cccc(C)c4)nnc3s2)cc1 [G, 6-(4-Diethylaminophenyl)-3-m-tolyl-[1,2,4]triazolo[3,4-b][1,3,4]thiadiazole]
1.62	0.645	0.626	1.31	–	–	COc1cc(-c2nnc3sc(-c4ccc(C)c(N)c4)nn23)cc(OC)c1OC [Entry 2, 6-(3-Amino-4-methylphenyl)-3-(3,4,5-trimethoxyphenyl)-[1,2,4]triazolo[3,4-b][1,3,4]thiadiazole]
–	–	5.3	–	> 10	5.18	COc1ccc(-c2nnc3sc(-c4ccc(N(C)C)cc4)nn23)cc1OC [Entry C1, 3-(3,4-Dimethoxyphenyl)-6-(4-dimethylaminophenyl)-[1,2,4]triazolo[3,4-b][1,3,4]thiadiazole]
> 10	> 10	> 10	> 10	–	–	COc1ccccc1-c1nnc2sc(-c3ccc(C)c([N+](=O)[O-])c3)nn12 [Entry 4, 3-(2-Methoxyphenyl)-6-(4-methyl-3-nitrophenyl)-[1,2,4]triazolo[3,4-b][1,3,4]thiadiazole]
–	–	2.48	–	5.07	1.1	CCN(CC)c1ccc(-c2nn3c(-c4cccnc4)nnc3s2)cc1 [D, 6-(4-Diethylaminophenyl)-3-(pyridin-3-yl)-[1,2,4]triazolo[3,4-b][1,3,4]thiadiazole]
5.44	> 10	> 10	> 10	> 10	> 10	COc1cc(-c2nnc3sc(-c4cccs4)nn23)cc(OC)c1OC [Y, 6-(Thiophen-2-yl)-3-(3,4,5-trimethoxyphenyl)-[1,2,4]triazolo[3,4-b][1,3,4]thiadiazole]
–	–	5.53	–	> 10	5.33	CN(C)c1ccc(-c2nnc3sc(-c4cccc(N(C)C)c4)nn23)cc1 [Entry J1, 3-(4-Dimethylaminophenyl)-6-(3-dimethylaminophenyl)-[1,2,4]triazolo[3,4-b][1,3,4]thiadiazole]
0.967	0.146	0.155	0.663	–	–	COc1ccccc1-c1nnc2sc(-c3ccc4cc[nH]c4c3)nn12 [Entry 13, 6-(1H-indol-6-yl)-3-(2-methoxyphenyl)-[1,2,4]triazolo[3,4-b][1,3,4]thiadiazole]
1.27	2.31	2.38	2.64	–	–	COc1ccccc1-c1nnc2sc(-c3ccc(N4CCOCC4)cc3)nn12 [Entry 9, 3-(2-Methoxyphenyl)-6-(4-morpholinophenyl)-[1,2,4]triazolo[3,4-b][1,3,4]thiadiazole]
> 10	> 10	> 10	> 10	–	–	COc1cc(-c2nnc3sc(-c4ccc(N5CCOCC5)cc4)nn23)cc(OC)c1OC [Entry 8, 6-(4-Morpholinophenyl)-3-(3,4,5-trimethoxyphenyl)-[1,2,4]triazolo[3,4-b][1,3,4]thiadiazole]
1.18	0.571	0.649	1.17	–	–	COc1ccccc1-c1nnc2sc(-c3ccc4[nH]ncc4c3)nn12 [Entry 12, 6-(1H-indazol-5-yl)-3-(2-methoxyphenyl)-[1,2,4]triazolo[3,4-b][1,3,4]thiadiazole]
